Source: PMC11845477, “Exploring the principles behind antibiotics with limited resistance” (Nature Communications, 2025)

Test system: P. aeruginosa ATCC BAA-3107 (SEN) and P. aeruginosa LESB58 (MDR)
Assay: Adaptive laboratory evolution (ALE), relative MIC of evolved lines
Type: cell-based, Pseudomonas aeruginosa
Text: Using the same set of bacterial strains, we initiated adaptive laboratory evolution with the aim to maximize the level of antibiotic resistance in the populations achieved during a longer, but fixed time period.
An established protocol for adaptive laboratory evolution[46],[73] was followed to propagate populations with the highest resistance levels. Starting with an antibiotic concentration that caused approximately 50% growth inhibition, ten parallel populations for each antibiotic-ancestor strain combination were grown for 72 hours at 37 °C with continuous shaking (300 RPM). MHB broth medium was used unless stated otherwise. After each incubation, 20 µl of each culture was transferred to four new wells containing fresh medium with increasing antibiotic concentrations (0.5×, 1×, 1.5×, and 2.5× the previous concentration) in a chessboard layout to monitor potential cross-contamination. Growth was monitored by measuring OD600 using a Biotek Synergy 2 microplate reader, and only populations grown in the highest drug concentration with an OD600 > 0.2 were transferred further.
A robotic liquid handling system was used to automatically prepare a 11 to 16-step serial dilution in 384-well microtiter plates (Greiner). A final concentration of 5 × 10^5 bacterial cells per mL were inoculated into each well containing 60 µL MHB medium. Bacterial cultures were incubated at 37 °C with continuous shaking (Infors shaker, 900 rpm with 3 mm throw) for 18 hours (2 replicates from each). Cell growth was monitored by measuring the optical density (OD600 values, using Biotek Synergy microplate reader). MIC was defined as the antibiotic concentration of complete growth inhibition (i.e., OD600 < 0.05). Relative MIC was calculated as follows:1 relativeMIC=MICevolved/MICancestor […]
Supplementary Figure 4. Resistance levels following adaptive laboratory evolution across bacterial strains. The level of resistance was measured as the fold change in relative MIC between evolved and ancestral strains after ~60 days of adaptive laboratory evolution. Data are grouped by bacterial strain (A. baumannii (AB), E. coli (EC), K. pneumoniae (KP), and P. aeruginosa (PA)) and categorized as either multidrug-resistant (MDR) or sensitive (SEN). Each data point represents a laboratory evolved line, and boxplots show the median, first and third quartiles, with whiskers indicating the 5th and 95th percentiles.
Statistical analysis was performed using two-sided Dunn’s post-hoc test with Benjamini-Hochberg correction for multiple comparisons (****/ ***/ **/ * indicates p < 0.0001/ 0.001/ 0.01/ 0.05). For detailed information on antibiotic and bacterial species, see Supplementary Table 1. For mode of action groups, refer to Table 1. Source data are provided as a Source Data file.

Nc1nc(-n2cc(C(=O)O)c(=O)c3cc(F)c(N4CC(O)C4)c(Cl)c32)c(F)cc1F [Delafloxacin]
Relative MIC (PA-MDR (LESB 58), evolved line 1, MIC of evolved line / MIC of ancestor): 64 | Relative MIC (PA-MDR (LESB 58), evolved line 2, MIC of evolved line / MIC of ancestor): 64 | Relative MIC (PA-MDR (LESB 58), evolved line 3, MIC of evolved line / MIC of ancestor): 64 | MIC of evolved line (PA-MDR (LESB 58), evolved line 4): 128 mg/L | Relative MIC (PA-MDR (LESB 58), evolved line 4, MIC of evolved line / MIC of ancestor): 64 | MIC of evolved line (PA-MDR (LESB 58), evolved line 5): 128 mg/L | Relative MIC (PA-MDR (LESB 58), evolved line 5, MIC of evolved line / MIC of ancestor): 64 | MIC of evolved line (PA-MDR (LESB 58), evolved line 6): 64 mg/L | Relative MIC (PA-MDR (LESB 58), evolved line 6, MIC of evolved line / MIC of ancestor): 32 | MIC of evolved line (PA-MDR (LESB 58), evolved line 7): 128 mg/L | Relative MIC (PA-MDR (LESB 58), evolved line 7, MIC of evolved line / MIC of ancestor): 64 | MIC of evolved line (PA-MDR (LESB 58), evolved line 8): 128 mg/L | Relative MIC (PA-MDR (LESB 58), evolved line 8, MIC of evolved line / MIC of ancestor): 64 | MIC of evolved line (PA-MDR (LESB 58), evolved line 9): 128 mg/L | Relative MIC (PA-MDR (LESB 58), evolved line 9, MIC of evolved line / MIC of ancestor): 64 | MIC of evolved line (PA-MDR (LESB 58), evolved line 10): 64 mg/L | Relative MIC (PA-MDR (LESB 58), evolved line 10, MIC of evolved line / MIC of ancestor): 32 | Relative MIC (log10) (PA-MDR (Pseudomonas aeruginosa LESB 58), evolved line 2 adapted to the named antibiotic): 1.806 | Relative MIC (log10) (PA-MDR (Pseudomonas aeruginosa LESB 58), evolved line 4 adapted to the named antibiotic): 1.806 | Relative MIC (log10) (PA-MDR (Pseudomonas aeruginosa LESB 58), evolved line 6 adapted to the named antibiotic): 1.505 | Relative MIC (log10) (PA-MDR (Pseudomonas aeruginosa LESB 58), evolved line 7 adapted to the named antibiotic): 1.806 | Relative MIC (log10) (PA-MDR (Pseudomonas aeruginosa LESB 58), evolved line 9 adapted to the named antibiotic): 1.806 | MIC of evolved line (PA-MDR LESB 58, evolved line 1): 128 mg/L | MIC of evolved line (PA-MDR LESB 58, evolved line 2): 128 mg/L | MIC of evolved line (PA-MDR LESB 58, evolved line 3): 128 mg/L | MIC of evolved line (PA-SEN (ATCC BAA 3107), evolved line 2): 32 mg/L | Relative MIC (PA-SEN (ATCC BAA 3107), evolved line 2, MIC of evolved line / MIC of ancestor): 2048 | MIC of evolved line (PA-SEN (ATCC BAA 3107), evolved line 3): 64 mg/L | Relative MIC (PA-SEN (ATCC BAA 3107), evolved line 3, MIC of evolved line / MIC of ancestor): 4096 | MIC of evolved line (PA-SEN (ATCC BAA 3107), evolved line 4): 32 mg/L | Relative MIC (PA-SEN (ATCC BAA 3107), evolved line 4, MIC of evolved line / MIC of ancestor): 2048 | MIC of evolved line (PA-SEN (ATCC BAA 3107), evolved line 5): 32 mg/L | Relative MIC (PA-SEN (ATCC BAA 3107), evolved line 5, MIC of evolved line / MIC of ancestor): 2048 | MIC of evolved line (PA-SEN (ATCC BAA 3107), evolved line 6): 64 mg/L | Relative MIC (PA-SEN (ATCC BAA 3107), evolved line 6, MIC of evolved line / MIC of ancestor): 4096 | MIC of evolved line (PA-SEN (ATCC BAA 3107), evolved line 7): 32 mg/L | Relative MIC (PA-SEN (ATCC BAA 3107), evolved line 7, MIC of evolved line / MIC of ancestor): 2048 | MIC of evolved line (PA-SEN (ATCC BAA 3107), evolved line 8): 32 mg/L | Relative MIC (PA-SEN (ATCC BAA 3107), evolved line 8, MIC of evolved line / MIC of ancestor): 2048 | MIC of evolved line (PA-SEN (ATCC BAA 3107), evolved line 9): 32 mg/L | Relative MIC (PA-SEN (ATCC BAA 3107), evolved line 9, MIC of evolved line / MIC of ancestor): 2048 | MIC of evolved line (PA-SEN (ATCC BAA 3107), evolved line 10): 32 mg/L | Relative MIC (PA-SEN (ATCC BAA 3107), evolved line 10, MIC of evolved line / MIC of ancestor): 2048 | Relative MIC (log10) (PA-SEN (Pseudomonas aeruginosa ATCC BAA 3107), evolved line 2 adapted to the named antibiotic): 3.311 | Relative MIC (log10) (PA-SEN (Pseudomonas aeruginosa ATCC BAA 3107), evolved line 7 adapted to the named antibiotic): 3.311 | Relative MIC (log10) (PA-SEN (Pseudomonas aeruginosa ATCC BAA 3107), evolved line 8 adapted to the named antibiotic): 3.311 | Relative MIC (log10) (PA-SEN (Pseudomonas aeruginosa ATCC BAA 3107), evolved line 10 adapted to the named antibiotic): 3.311 | Relative MIC (Pseudomonas aeruginosa ATCC BAA 3107 (PA-SEN), evolved line 2): 2048 | Relative MIC (Pseudomonas aeruginosa ATCC BAA 3107 (PA-SEN), evolved line 3): 4096 | Relative MIC (Pseudomonas aeruginosa ATCC BAA 3107 (PA-SEN), evolved line 4): 2048 | Relative MIC (Pseudomonas aeruginosa ATCC BAA 3107 (PA-SEN), evolved line 5): 2048 | Relative MIC (Pseudomonas aeruginosa ATCC BAA 3107 (PA-SEN), evolved line 6): 4096 | Relative MIC (Pseudomonas aeruginosa ATCC BAA 3107 (PA-SEN), evolved line 7): 2048 | Relative MIC (Pseudomonas aeruginosa ATCC BAA 3107 (PA-SEN), evolved line 8): 2048 | Relative MIC (Pseudomonas aeruginosa ATCC BAA 3107 (PA-SEN), evolved line 9): 2048 | Relative MIC (Pseudomonas aeruginosa ATCC BAA 3107 (PA-SEN), evolved line 10): 2048 | Relative MIC (Pseudomonas aeruginosa LESB 58 (PA-MDR), evolved line 1): 64 | Relative MIC (Pseudomonas aeruginosa LESB 58 (PA-MDR), evolved line 2): 64 | Relative MIC (Pseudomonas aeruginosa LESB 58 (PA-MDR), evolved line 3): 64 | Relative MIC (Pseudomonas aeruginosa LESB 58 (PA-MDR), evolved line 4): 64 | Relative MIC (Pseudomonas aeruginosa LESB 58 (PA-MDR), evolved line 5): 64 | Relative MIC (Pseudomonas aeruginosa LESB 58 (PA-MDR), evolved line 6): 32 | Relative MIC (Pseudomonas aeruginosa LESB 58 (PA-MDR), evolved line 7): 64 | Relative MIC (Pseudomonas aeruginosa LESB 58 (PA-MDR), evolved line 8): 64 | Relative MIC (Pseudomonas aeruginosa LESB 58 (PA-MDR), evolved line 9): 64 | Relative MIC (Pseudomonas aeruginosa LESB 58 (PA-MDR), evolved line 10): 32
